Assay results as given in patent US20250223306A1, “TEAD INHIBITORS AND METHODS OF USE” (Sporos BioDiscovery, Inc., priority 2022, published 2025).

How the values were obtained:
[1] = test system: NCI-H23 cells; test: Proliferation and cell viability, CellTiter-Glo 2.0 (CTG) assay; format: cell-based; conditions: 144 hrs
[2] = test system: NCI-H226 cells; test: Proliferation, Cell Titer One assay; format: cell-based; conditions: 6 days
Experimental: (§1) Cell proliferation of a TEAD dependent NF2-null mesothelioma cell line, NCI-H226, and a TEAD-non-dependent mesothelioma cell line, NCI-H28 was assayed using two different protocols: • a) CellTiter-Glo 2.0 (Promega #G9243). The effect of the TEAD inhibitors disclosed herein on cell proliferation was determined in TEAD1-genetically dependent cell line NCI-H226 (responder cell line) and TEAD-independent cell lines (NCI-H23, HEK293T), as non-responder, negative control. Cells were seeded in 96-well plates (Thermo Scientific #167008) in growth media (RPMI-1640, Gibco #61870-010) for NCI-H226 and NCI-H23 or DMEM (Gibco #31966-021, HEK293T) with 10% Heat Inactivated Fetal Bovine Serum (Gibco 10500-064) at 800 (NCI-H226 and HEK-293T) or 2000 (NCI-H23) cells per well at 37° C., 5% CO2, humidified incubator; 24 hours later, fresh growth media containing test compound or DMSO vehicle was added and incubated with the cells for 144 hrs. TEAD inhibitor stocks were made at a 1000× fold excess in DMSO, and a dose response test compound dose range of 10,000 to 0.1 nM was used. Each treatment was carried out in triplicate. After 144 hrs of treatment, relative cell viability numbers were determined using the CellTiter-Glo 2.0 assay following the manufacturer's instructions. Test plates and CellTiter-Glo 2.0 reagent were allowed to equilibrate to room temperature. CellTiter-Glo 2.0 reagent was added at 1:1 reagent to media ratio to the 96-well cell plates, plates were placed on a plate shaker for 2 minutes and then incubated at room temperature for a further 10 minutes to allow complete cell lysis to occur. The mix was then transferred to white, 96-well luminometer assay plates (Greiner Bio One #655075). Luminescence was quantified using a CLARIOStar Plus multi-mode plate reader (BMG Labtech) in luminescence detection mode with the recommended settings (ultra-Glo pre-set: emission 545-50 nm with autofocus and enhanced dynamic range on). Relative cell density was expressed as a function of inhibitor concentration, with respect to DMSO-only control wells. Data where plotted using GraphPad Prism and IC50 values for the biological effect were calculated using the EC50 non-linear fit function using a sigmoidal, 4-parameter logistic, least squares fit with no constraints. • b) Cell Titer One (Promega, #G3582). The effect of the TEAD inhibitors disclosed herein on cell proliferation was also determined using the Promega Substrate Cell Titer Aqueous One Solution Reagent. The TEAD inhibitors were evaluated for the effects on cell proliferation responder (H226) and non-responder negative control cancer cell lines (CAMA1, H28), as well as non-transformed normal human cells (HUVEC, NHDF). Dissociated cells were resuspend in media (depending on cell line, either in DMEM, RPMI, or EMEM all with 10% FBS, with gentamicin as an antibiotic). Cells were seeded at 100 μL/well at 750 cells per well in 96-well plates and allowed to settle and attach. After an incubation of 24 hrs (37° C., 5% CO2, humidified incubator), 100 μL of test compound-containing media was added. A dilution series of 2000× concentrated stock of test compounds was prepared in DMSO, for final concentrations from 0.1 to 10,000 nM. After addition of test compound-containing media, cells were incubated for 6 days at 37° C., 5% CO2, humidified incubators). To measure cell density, 20 μL of Promega Substrate Cell Titer 96 Aqueous One Solution Reagent (Promega, #G3582) to each well was added according to the manufacturer's instructions. Plates were incubated at 37° C. for usually 3-8 hrs, to reach in the control cells (without compound) an OD of 1.5 at 490 nm. The OD was measured using Vmax [Molecular Devices] spectrophotometer plate reader. Media only-wells were used as background controls and cell densities normalized to DMSO vehicle control. ECs were taken as the concentration achieving 50% of maximal growth inhibition.

[3] = test system: NCI-H28 cells; test: Proliferation, Cell Titer One assay; format: cell-based; conditions: 6 days
Experimental: as §1

[4] = test system: TEAD/YAP promoter element in MCF7-Luc cells; test: Cell-based TEAD-promoter transcriptional activity assay (MCF-7 TEAD luciferase); conditions: MCF-7 TEAD luciferase assay, 24 hrs
Excerpt: Luciferase based TEAD-transcriptional cell-based reporter assay: To measure the effect of the TEAD inhibitors disclosed herein on TEAD transcriptional activity in cell-based systems, we employed a stable MCF7 cell line expressing luciferase under a consensus synthetic TEAD/YAP promoter element (MCF7-Luc, BPS Bioscience, Catalog #60618). This MCF7-TEAD-Luc cell line has been extensively validated with both genetic and pharmacological intervention, showing inhibition of luciferase expression and luminescence in response to ablation of the TEAD/YAP pathway. MCF7-Luc cells were plated at 10,000 cells per well in white 384-well plates and settled by a quick spin. The media was MEM (Gibco) supplemented with 10% fetal bovine serum (ExCell), selenium-transferrin-insulin mix (Gibco), 1× non-essential amino acids (Gibco) and sodium pyruvate (Gibco). Cells were allowed to attach and grow overnight (37° C., 5% CO2 in humidified incubator), and test compounds were added the next day. Compounds were dissolved at 1000× fold excess in DMSO and made into 2-fold serial dilution, and added to media at 30 μL of media per well. A DMSO-only well serves a vehicle control. The highest concentration of drug in media was 1,000 nM. Positive control compounds include K975 (pan-TEAD inhibitor) and negative control (Actinomycin). Cells were incubated for 24 hrs with test compounds and positive controls, after which time, the luminescence was measured by the One-Glo luciferase kit (Promega). 30 μL of One-Glo reagent was added to each well and shaken for 8 minutes to lyse the cells. The plates were centrifugated at 1000 RPM for 1 minute to settle all liquid in the well and eliminate bubbles. Luminescence was quantified using an ENVision plate reader (Perkin Elmer). Percent inhibition of luminescence by test compound was expressed as a function of test compound concentration, with the no-test compound DMSO only wells serving as baseline. EC50 values for each compound were calculated with a non-linear asymptotic line fit.

[5] = Homo sapiens, NCI-H23, H23-non-responder cell line

| Compound | IC50 [1, 5] [µM] | IC50 ([2]; Homo sapiens, NCI-H226, 144 h) [µM] | IC50 ([3]; Homo sapiens, NCI-H28, 144 h) [µM] | EC50 ([4]; Homo sapiens, MCF7) [µM] | IC50 ([1]; H23-non-responder cell line) [µM] | IC50 [2] [µM] | IC50 [3] [µM] | EC50 [4] [µM] |
| --- | --- | --- | --- | --- | --- | --- | --- | --- |
| C[C@H](NC(=O)c1cnc2c(C3=CC[C@@H](C(F)(F)F)CC3)cccc2c1)c1ncco1 (single isomer, unassigned) [Compound 20, N-(1-(oxazol-2-yl)ethyl)-8-(4-(trifluoromethyl)cyclohex-1-en-1-yl)quinoline-3-carboxamide] |  |  |  |  | > 1 | < 0.2 | > 1 | < 0.2 |
| C[C@H](NC(=O)c1cnc2c(C3=CCC(C(F)(F)F)CC3)cccc2c1)c1ccccn1 (stereo partly drawn) [Compound 2, N—((S)-1-(pyridin-2-yl)ethyl)-8-(4-(trifluoromethyl)cyclohex-1-en-1-yl)quinoline-3-carboxamide] | > 1 | < 0.2 | > 1 | < 0.2 |  |  |  |  |
| O=C(NCc1ncco1)c1cnc2c(C3=CCC(C(F)(F)F)CC3)cccc2c1 (stereo not shown) [Compound 11, N-(oxazol-2-ylmethyl)-8-(4-(trifluoromethyl)cyclohex-1-en-1-yl)quinoline-3-carboxamide] | > 1 | < 0.2 | > 1 | < 0.2 |  |  |  |  |

Further lines, results first:

| IC50 [1, 5] [µM] | IC50 ([2]; Homo sapiens, NCI-H226, 144 h) [µM] | IC50 ([3]; Homo sapiens, NCI-H28, 144 h) [µM] | EC50 ([4]; Homo sapiens, MCF7) [µM] | IC50 ([1]; H23-non-responder cell line) [µM] | IC50 [2] [µM] | IC50 [3] [µM] | EC50 [4] [µM] | Compound |
| --- | --- | --- | --- | --- | --- | --- | --- | --- |
| > 1 | < 0.2 | > 1 | < 0.2 |  |  |  |  | C[C@H](NC(=O)c1cnc2c(C3=CC[C@@H](C(F)(F)F)CC3)cccc2c1)c1ncco1 (single isomer, unassigned) [Compound 19, N-(1-(oxazol-2-yl)ethyl)-8-(4-(trifluoromethyl)cyclohex-1-en-1-yl)quinoline-3-carboxamide] |
| > 1 | < 0.2 | > 1 |  |  |  |  |  | C[C@H](CO)NC(=O)c1cnc2c(C3=CCC(C(F)(F)F)CC3)cccc2c1 (stereo partly drawn) [Compound 7, N—((R)-1-hydroxypropan-2-yl)-8-(4-(trifluoromethyl)cyclohex-1-en-1-yl)quinoline-3-carboxamide] |
